Assay results: PMC4102551, “Screening and Characterisation of Antimicrobial Properties of Semisynthetic Betulin Derivatives” (PLoS ONE, 2014)
Converted amounts (≈) assume the structure as drawn. Like-named read-outs stand apart in the source and are kept apart here.

Columns and labels:
P. aeruginosa ATCC 27853 = test: Broth microdilution assay, P. aeruginosa; type: cell-based, Pseudomonas aeruginosa
Outline: (§1)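 Broth microdilution per CLSI/EUCAST in Mueller Hinton II broth, 5×10^5 cfu/mL, 24 h at 37°C with agitation; growth by absorbance at 620 nm versus controls. Compounds first screened at 50 µM.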

E. aerogenes ATCC 13048 = test: Broth microdilution assay, E. aerogenes; type: cell-based, Enterobacter aerogenes; conditions: for inhibition at 50 µM: Klebsiella aerogenes, ATCC13048, 24 h, read-out: Inhibitory effect (%) E. aerogenes ATCC 13048
Outline: as §1

S. aureus ATCC 25923 = test: Broth microdilution assay, S. aureus; type: cell-based, Staphylococcus aureus; conditions: for inhibition at 50 µM: ATCC25923, 24 h
Outline: as §1

S. aureus = test: Effect of BSA on antimicrobial activity (S. aureus microdilution assay); type: cell-based, Staphylococcus aureus; conditions: compound at MIC90 6.25 µM
Procedure: The effect of bovine serum albumin (BSA) on antimicrobial activity was assessed by using the S. aureus microdilution assay in a similar manner as described above, but with increasing concentrations of BSA, ranging from 0.023 nM to 25 µM [23].
As described above, the antimicrobial activities of betulin derivatives seen in the microdilution assay were not detectable in the host-pathogen co-culture assay. Since the assay was performed in cell culture media containing 7.5% of fetal bovine serum, this was suspected to be the reason. Serum is rich in proteins, the most abundant of these being albumin. First, we performed the normal antibacterial assay by replacing the Mueller Hinton II broth with the cell culture media. […] The activity of compound 5 was clearly affected by the added BSA: at 24 nM concentration the activity was reduced by 50% and at concentration 390 nM the activity was completely lost. As a comparison, the concentration of albumin in human serum is typically 36–48 g/L which corresponds to […] concentration. Albumin is capable of interacting with many organic and inorganic molecules and functions as a key controller of intercellular fluxes [43]–[52]. Majority of therapeutic compounds are reversibly bound to plasma proteins, but the degree and nature of the binding differs. […]

E. coli ATCC 25922 = test: Broth microdilution assay, E. coli; type: cell-based, Escherichia coli
Outline: as §1

E. faecalis ATCC 29212 = test: Broth microdilution assay, E. faecalis; type: cell-based, Enterococcus faecalis; conditions: for Inhibitory effect (%) E. faecalis ATCC 29212 / inhibition at 50 µM: 50 µM, 24 h, inhibition of growth, mean ± SD; for inhibition at 50 µM: ATCC29212, 24 h, read-out: Inhibitory effect (%) E. faecalis ATCC 29212
Outline: as §1

in vitro = type: cell-based, human; conditions: human
Outline: (§2)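 Cytotoxicity read-out: intracellular ATP (CellTiter-Glo luminescence) in Huh-7 hepatoma cells seeded at 20000 cells/well, cultured overnight, then exposed to compounds for 24 h at 37°C in 5% FBS medium. Polymyxin B sulphate (15000 IU/mL) served as positive control.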

Huh-7 cells = test: in vitro; type: cell-based, human; conditions: for Cytotoxicity (%) Huh-7 cells: 50 µM
Outline: as §2

C. albicans ATCC 90028 = test: Broth microdilution assay, C. albicans; type: cell-based, Candida albicans
Outline: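 Candida albicans ATCC 90028 was grown on Sabouraud Dextrose Agar at 27°C for 16–18 h, then suspended in sterile 0.9% saline. Broth microdilution in clear 96-well plates mixed equal volumes of yeast suspension and diluted sample. Plates were incubated with agitation at 35°C for 48 h. Absorbance at 620 nm was read at 0, 24 and 48 h, and growth inhibition was expressed as a percentage relative to controls.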

[1] = test system: all microbial strains tested; test: Primary antimicrobial screening, all strains; type: cell-based; conditions: 50 µM
Excerpt: Gram-negative strains Escherichia coli (ATCC 25922), Enterobacter aerogenes (ATCC 13048) and Pseudomonas aeruginosa (ATCC 27853), Gram-positive strains Staphylococcus aureus (ATCC 25923) and Enterococcus faecalis (ATCC 29212), and fungal strain Candida albicans (ATCC 90028) were obtained from Microbiologics Inc., and used for the antimicrobial screening. Strains were selected according to the guidelines set for clinical laboratories by Clinical and Laboratory Standards Institute [CLSI, formerly National Committee on Clinical Laboratory Standards [22]] and the European Committee on Antimicrobial Susceptibility Testing (EUCAST). Bacterial strains were grown on Mueller Hinton II Agar (MHA) (BBL, BD) and Mueller Hinton II broth (MHB) (BBL, BD), whereas Candida was initiated on Sabouraud Dextrose Agar (SDA) (Difco, BD) plates. Media were prepared into MilliQ water according to manufacturer’s instruction and autoclaved at 121°C for 15 min. Bacteria were plated on MHA plates and incubated at 37°C for 16–18 h. […] Absorbance was measured at 620 nm with Victor plate reader (Wallac 1420, Perkin Elmer) at 0, 4 and 24 h with the bacteria, and at 0, 24 and 48 h with Candida. The antimicrobial activity of the samples was calculated from the absorbance values by comparing to the controls, and expressed as a percentage inhibition of growth. […]

[2] = test system: S. aureus and E. faecalis; design: method as in PMID 18835348; conditions: ref 36; cited from earlier work
[3] = test system: S. aureus, E. coli, B. subtilis and Micrococcus luteus; design: method as in PMID 12601674, PMID 7500642, PMID 8590637; conditions: ref 19, 33, 34; cited from earlier work
[4] = 50 µM, 24 h, inhibition of growth, mean ± SD
[5] = 50 µM, 24 h exposure, ATP content, 5% FBS, read-out: Cytotoxicity (%) Huh-7 cells
[6] = 24 h exposure, ATP assay, 5% FBS, read-out: IC50 cytotoxicity Huh-7 cells
[7] = 24 h exposure, ATP content, 5% FBS
[8] = 50 µM, 48 h at 35°C, inhibition of growth, mean ± SD
[9] = Pseudomonas aeruginosa, ATCC27853, 24 h; read-out: Inhibitory effect (%) P. aeruginosa ATCC 27853
[10] = Staphylococcus aureus, 50 µM, 24 h, inhibition of growth, mean ± SD, read-out: Inhibitory effect (%) S. aureus ATCC 25923
[11] = Escherichia coli, ATCC25922, 24 h; read-out: Inhibitory effect (%) E. coli ATCC 25922
[12] = Candida albicans, ATCC90028, 48 h; read-out: Inhibitory effect (%) C. albicans ATCC 90028

SMILES | Inhibitory effect (%) S. aureus ATCC 25923 (S. aureus ATCC 25923; [4]) | Inhibitory effect (%) E. faecalis ATCC 29212 (E. faecalis ATCC 29212) | Inhibitory effect (%) E. aerogenes ATCC 13048 (E. aerogenes ATCC 13048; [4]) | Cytotoxicity (%) Huh-7 cells (Huh-7 cells; [7]) | Inhibitory effect (%) C. albicans ATCC 90028 (C. albicans ATCC 90028; [8]) | inhibition at 50 µM (P. aeruginosa ATCC 27853; [9]) | inhibition at 50 µM (E. aerogenes ATCC 13048; [4]) | inhibition at 50 µM (S. aureus ATCC 25923; [10]) | inhibition at 50 µM (E. coli ATCC 25922; [11]) | inhibition at 50 µM (E. faecalis ATCC 29212; Enterococcus faecalis) | inhibition at 50 µM (C. albicans ATCC 90028; [12]) | MIC against S. aureus and E. faecalis [2] | further results
C=C(C)[C@@H]1CC[C@]2(COC(=O)c3ccccc3NC(C)=O)CC[C@]3(C)C(CCC4[C@@]5(C)CC[C@H](O)C(C)(C)C5CC[C@]43C)C12 (some centres unmarked) [Compound 5, 28-O-(N-acetylanthraniloyl)betulin] | 100.2±0.1% | 98.5±0.2% |  |  |  |  |  |  |  |  |  |  | inhibition at 50 µM (P. aeruginosa ATCC 27853; Pseudomonas aeruginosa, ATCC27853, 24 h, read-out: Inhibitory effect (%) P. aeruginosa ATCC 27853): 12.3 ± 2.3%; inhibition at 50 µM (E. aerogenes ATCC 13048): 25.2 ± 2%; inhibition at 50 µM (S. aureus ATCC 25923; Staphylococcus aureus, read-out: Inhibitory effect (%) S. aureus ATCC 25923, 50 µM, 24 h, inhibition of growth, mean ± SD): > 90%; MIC90 (S. aureus ATCC 25923; Staphylococcus aureus, ATCC25923, read-out: MIC90 against S. aureus): 6.25 µM (≈ 3.77 µg/mL); BSA concentration at which the activity was completely lost (S. aureus): 390 nM; BSA concentration at which the activity was reduced by 50% (S. aureus): 24 nM; inhibition at 50 µM (E. coli ATCC 25922; Escherichia coli, ATCC25922, 24 h, read-out: Inhibitory effect (%) E. coli ATCC 25922): 0.5 ± 3.1%; MIC90 (E. faecalis ATCC 29212; Enterococcus faecalis, ATCC29212, read-out: MIC90 against E. faecalis): 6.25 µM (≈ 3.77 µg/mL); cytotoxicity at 24 h, 50 µM (in vitro; [5]): 30 ± 3%; IC50 at 24 h (in vitro; [6]): 56 µM; Effect on Huh-7 cell monolayer in ATP assay (Huh-7 cells; 100 µM, 24 h): completely destroyed the cell monolayer; inhibition at 50 µM (C. albicans ATCC 90028; Candida albicans, ATCC90028, 48 h, read-out: Inhibitory effect (%) C. albicans ATCC 90028): 10 ± 5.2%
C=C(C)C1CCC2(COC(C)=O)CCC3(C)C(CCC4C5(C)CCC(OC(C)=O)C(C)(C)C5CCC43C)C12 (centres unmarked) [Compound 14] | 13.8±3.2% | 22.8±17.5% | 8.1±9.0% | -11.1±3.8% | -1.1±18.3% |  |  |  |  |  |  |  | Inhibitory effect (%) P. aeruginosa ATCC 27853 (P. aeruginosa ATCC 27853; [4]): 3.9±0.6%; Inhibitory effect (%) E. coli ATCC 25922 (E. coli ATCC 25922; [4]): -1.8±2.1%; Activity against all microbial strains tested [1]: inactive
C=C(C)[C@@H]1CC[C@]2(C=O)CC[C@]3(C)C(CCC4[C@@]5(C)CC[C@H](O)C(C)(C)C5CC[C@]43C)C12 (some centres unmarked) [Compound 18, betulinic aldehyde] |  |  |  |  |  | 3.9 ± 0.6% | 13.5 ± 2.6% | -35.5% | 2.7 ± 2.4% | 39.6 ± 8% | 6.9 ± 8.1% |  | IC50 at 24 h (in vitro): 47 µM; cytotoxicity at 24 h, 50 µM (in vitro; Cytotoxicity (%) Huh-7 cells): 61%; Cytotoxicity (%) Huh-7 cells (Huh-7 cells; human, 24 h): 61.3±9.5%
C=C(C)[C@@H]1CC[C@]2(C(=O)O)CC[C@]3(C)[C@H](CC[C@@H]4[C@@]5(C)CC[C@H](O)C(C)(C)[C@@H]5CC[C@]43C)[C@@H]12 [Compound 19, betulinic acid] |  | 55.9±5.0% | 38.2±3.0% | 31.6±15.7% | inactive | 6.7 ± 1.4% | 38% | 22.8 ± 5.4% | 20.2 ± 6.1% | 56% | 21.6 ± 2.6% | > 256 mg/L | Activity against S. aureus, E. coli, B. subtilis and Micrococcus luteus [3]: inactive; cytotoxicity at 24 h, 50 µM (in vitro; Huh-7 cells, 50 µM, 24 h exposure, ATP content, 5% FBS, read-out: Cytotoxicity (%) Huh-7 cells): 30%
C=C(C)C1CCC2(COC(C)=O)CCC3(C)C(CCC4C5(C)CCC(=O)C(C)(C)C5CCC43C)C12 (centres unmarked) [Compound 21] | 0.7±3.4% | 5.7±13.4% | 12.6±6.2% | -3.9±1.1% | -13.9±24.7% |  |  |  |  |  |  |  | Inhibitory effect (%) P. aeruginosa ATCC 27853 (P. aeruginosa ATCC 27853; [4]): 4.7±2.0%; Inhibitory effect (%) E. coli ATCC 25922 (E. coli ATCC 25922; [4]): 2.6±1.8%; Activity against all microbial strains tested [1]: inactive
C=C(C)C1CCC2(C=NO)CCC3(C)C(CCC4C5(C)CCC(O)C(C)(C)C5CCC43C)C12 (centres unmarked) [Compound 31, betulin-28-oxime] |  |  |  |  |  | 5.4 ± 2.2% | 14.6 ± 0.9% | 6.4 ± 3.4% | 1.9 ± 4% | 41 ± 3.4% | -73.5% |  | IC50 at 24 h (in vitro): 25 µM; cytotoxicity at 24 h, 50 µM (in vitro; Cytotoxicity (%) Huh-7 cells): 61%; inhibition at 100 µM (Huh-7 cells; Homo sapiens, Huh-7, 100 µM, 24 h, read-out: Inhibition in ATP assay, Huh-7 cells): 60%; Cytotoxicity (%) Huh-7 cells (Huh-7 cells; human, 24 h): 61.5±2.0%
CCn1c(=O)n2n(c1=O)C1(C(C)C)CCC3(COC(C)=O)CCC4(C)C(=C31)C2CC1C2(C)CCC(OC(C)=O)C(C)(C)C2CCC14C (centres unmarked) [Compound 43] |  |  |  | 86.0±2.0% |  | 1.7 ± 1.7% | 18.5 ± 2.2% | 2.9 ± 0.7% | -3.7% | 57.1 ± 4.4% | -9.7% |  | cytotoxicity at 24 h, 50 µM (in vitro; [5]): 85%; IC50 at 24 h (in vitro; [6]): 16 µM; Effect on Huh-7 cell monolayer in ATP assay (Huh-7 cells; 100 µM, 24 h): completely destroyed the cell monolayer
CC1(C)CC[C@]2(C(=O)O)CC[C@]3(C)C(=CC[C@@H]4[C@@]5(C)CC[C@H](O)C(C)(C)[C@@H]5CC[C@]43C)[C@@H]2C1 [OA, oleanolic acid] |  |  |  |  |  |  |  |  |  |  |  | 8 to 64 mg/L | 
C[C@H]1[C@H](C)CC[C@]2(C(=O)O)CC[C@]3(C)C(=CC[C@@H]4[C@@]5(C)CC[C@H](O)C(C)(C)[C@@H]5CC[C@]43C)[C@H]12 [UA, ursolic acid] |  |  |  |  |  |  |  |  |  |  |  | 4 to 8 mg/L | 
